From PubChem BioAssay (NCI)
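Step 1: Grow cells in 96-well plates. Step 2: Expose to compound for 48 hours at 5 concentrations. Step 3: Interpolate endpoints linearly; if unreached, use highest concentration. Abbreviation: GI50, concentration required for 50% inhibition of growth. At the TGI there is no net growth.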

Legend:
Experiment in all cases: NCI anticancer screen, dose series, 48 h
HCT-116 colon = tested on: HCT-116 colon
SR leukemia = tested on: SR leukemia
EKVX NSCLC = tested on: EKVX NSCLC
SF-295 CNS = tested on: SF-295 CNS
SK-MEL-28 melanoma = tested on: SK-MEL-28 melanoma
UACC-62 melanoma = tested on: UACC-62 melanoma
SK-OV-3 ovarian = tested on: SK-OV-3 ovarian
TK-10 renal = tested on: TK-10 renal
RPMI-8226 leukemia = tested on: RPMI-8226 leukemia
SF-539 CNS = tested on: SF-539 CNS

Structure (SMILES) | TGI (HCT-116 colon) | TGI (SR leukemia) | TGI (EKVX NSCLC) | TGI (SF-295 CNS) | TGI (SK-MEL-28 melanoma) | TGI (UACC-62 melanoma) | TGI (SK-OV-3 ovarian) | TGI (TK-10 renal) | TGI (RPMI-8226 leukemia) | GI50 (HCT-116 colon) | GI50 (EKVX NSCLC) | GI50 (SF-295 CNS) | GI50 (SK-MEL-28 melanoma) | GI50 (SF-539 CNS) | TGI (SF-539 CNS) | GI50 (UACC-62 melanoma) | GI50 (SK-OV-3 ovarian) | GI50 (TK-10 renal) | GI50 (RPMI-8226 leukemia) | GI50 (SR leukemia)
Cc1cccc(NC(=O)CSc2nnc(-c3ccc(N=Cc4ccc(Cl)cc4)cc3)o2)c1 | > 100 µM | > 100 µM | > 100 µM | > 100 µM | > 100 µM | > 100 µM | > 100 µM | > 100 µM | > 100 µM | – | – | – | – | – | – | – | – | – | – | –
O=C(Cc1csc2nc(-c3ccc(Br)cc3)cn12)N/N=C/c1ccccc1O | 12.4 µM | – | 19.2 µM | 9.34 µM | 24.2 µM | 7.28 µM | 30.2 µM | 8.72 µM | 20.7 µM | 3.21 µM | 3.93 µM | 2.73 µM | 11.9 µM | 3.55 µM | 11.8 µM | 2.09 µM | 12.8 µM | 2.05 µM | 2.83 µM | –
Cc1cn([C@H]2CN(O)C[C@@H](CO)O2)c(=O)[nH]c1=O | > 100 µM | – | > 100 µM | > 100 µM | > 100 µM | > 100 µM | > 100 µM | > 100 µM | > 100 µM | – | – | – | – | – | > 100 µM | – | – | – | – | –
COc1ccc(C2=NOC3=c4ccccc4=CSC3=C2c2ccccc2)cc1 | > 100 µM | – | > 100 µM | > 100 µM | > 100 µM | 85 µM | > 100 µM | > 100 µM | > 100 µM | 12.8 µM | 94 µM | 48.9 µM | 37.7 µM | 13.3 µM | 37.5 µM | 22 µM | > 100 µM | 54 µM | 25.3 µM | –
C=C(/C=C/C=C(\CO)CCC=C(C)C)[C@H]1CCC2([C@H](CCCO)/C(=C(/C)C=O)CC[C@]2(C)O)[C@H]1O (stereo not given in full) | > 100 µM | – | > 100 µM | > 100 µM | > 100 µM | > 100 µM | > 100 µM | > 100 µM | > 100 µM | – | – | – | – | – | > 100 µM | – | – | – | – | –
O=C(CC/C(CC(=O)c1ccc(Cl)cc1)=N\O)Nc1cccc(Cl)c1 | – | – | > 100 µM | > 100 µM | > 100 µM | > 100 µM | > 100 µM | > 100 µM | > 100 µM | – | – | – | – | – | > 100 µM | – | – | – | – | –
Cc1ccccc1NC(=O)C(=O)CC(=O)c1sc(-n2nc(-c3ccccc3)cc2-c2ccccc2)nc1C | > 100 µM | > 100 µM | > 100 µM | > 100 µM | – | > 100 µM | > 100 µM | > 100 µM | > 100 µM | – | – | – | – | – | > 100 µM | – | – | – | – | –
O=C(Cn1ccnc1[N+](=O)[O-])NCc1ccc(F)cc1 | – | – | > 100 µM | > 100 µM | > 100 µM | > 100 µM | > 100 µM | > 100 µM | > 100 µM | – | – | – | – | – | > 100 µM | – | – | – | – | –
OCCN1CCCN(CCCN2c3ccccc3Sc3ccc(C(F)(F)F)cc32)CC1 | 4.49 µM | 4.75 µM | – | 3.74 µM | 3.03 µM | – | 18.4 µM | 3.58 µM | 4.46 µM | 2.1 µM | – | 1.76 µM | 1.64 µM | 1.67 µM | 3.12 µM | – | 5.29 µM | 1.68 µM | 2.21 µM | 2.18 µM
COc1ccc(C2C(C(=O)O)=C(COC(C)=O)Oc3cc4c(cc32)OCO4)c(OC)c1 (stereo not given) | > 100 µM | – | > 100 µM | > 100 µM | > 100 µM | > 100 µM | > 100 µM | > 100 µM | > 100 µM | – | – | – | – | – | > 100 µM | – | – | – | – | –
COC(=O)C1C(=O)NC2(C)CC1c1ccccc1O2 (stereo not given) | > 100 µM | > 100 µM | – | > 100 µM | > 100 µM | > 100 µM | > 100 µM | > 100 µM | > 100 µM | – | – | – | – | – | > 100 µM | – | – | – | – | –
C#CCN(CCCOc1ccc(Cl)cc1Cl)CCCSC(=O)CCCCCN1/C(=C\C=C2/CCCC(/C=C/C3=[N+](CCCCCC(=O)[O-])c4ccccc4C3(C)C)=C2Cl)C(C)(C)c2ccccc21 | 3.14 µM | – | 12.8 µM | 4.06 µM | 2.43 µM | 3.14 µM | 8.86 µM | 5.17 µM | – | 1.63 µM | 2.42 µM | 1.91 µM | 0.708 µM | 1.2 µM | 2.71 µM | 1.15 µM | 2.97 µM | 2.21 µM | – | –
CCOC(=O)C(=O)Nc1nc2ccc(OC)cc2s1 | – | – | > 100 µM | > 100 µM | > 100 µM | > 100 µM | > 100 µM | > 100 µM | > 100 µM | – | – | – | – | – | > 100 µM | – | – | – | – | –
COc1ccc2c(c1)CCC1C2CCC2(C)C(NC(=O)CCCCC3CCSS3)CCC12 (stereo not given) | > 100 µM | – | > 100 µM | > 100 µM | > 100 µM | > 100 µM | > 100 µM | > 100 µM | > 100 µM | 11.2 µM | > 100 µM | > 100 µM | 25.6 µM | > 100 µM | > 100 µM | 15 µM | 43.8 µM | 16.1 µM | 5.85 µM | –
C=C(c1ccc(C(=O)NCCCn2ccnc2)cc1)c1cc2c(cc1C)C(C)(C)CCC2(C)C | 1.79 µM | – | > 100 µM | 18.7 µM | 6.38 µM | 3.92 µM | 5.59 µM | 7.87 µM | – | 0.0398 µM | 4.84 µM | 1.31 µM | 1.71 µM | 0.0565 µM | 2.17 µM | 1.67 µM | 2.09 µM | 2.97 µM | – | –
O=C(Nc1c(Cl)cc([N+](=O)[O-])cc1Cl)C(=O)C(C(=O)c1ccncc1)C1OC(=O)c2ccccc21 (stereo not given) | > 100 µM | > 100 µM | > 100 µM | > 100 µM | > 100 µM | > 100 µM | > 100 µM | > 100 µM | > 100 µM | – | – | – | – | – | – | – | – | – | – | –
COc1cc2c(c(OC)c1OC)-c1ccc(SC)c(=O)cc1C(CC(=O)Oc1ccccc1F)C2 (stereo not given) | 0.0644 µM | > 7.5 µM | – | > 7.5 µM | > 7.5 µM | 0.0688 µM | > 7.5 µM | > 7.5 µM | > 7.5 µM | – | – | – | – | – | – | – | – | – | – | –
Nc1nc2c([nH]1)c1[nH]c3ccccc3c1c1[nH]c3ccccc3c21 | 18 µM | – | 30.8 µM | 27.5 µM | 23.7 µM | 30 µM | 29.7 µM | 37.7 µM | 28.3 µM | 5.24 µM | 14.1 µM | 13.9 µM | 11.5 µM | 12.8 µM | 25.6 µM | 15.9 µM | 16.2 µM | 22.7 µM | 9.83 µM | –
